Results from US9718828B2 (MERCK SHARP & DOHME CORP., priority 2011, dated 2017).
Like-named read-outs stand apart in the source and are kept apart here.

Target: hBTK (full-length BTK, 6HIS-tag cleaved) (Homo sapiens (Human), UniProt Q06187)
Test: BTK enzymatic activity, LANCE TR-FRET assay (Assay Method C)
Format: biochemical
Settings: 50 pM hBTK, 25 μM ATP
[1] = LANCE TR-FRET, class 100-1000 is given as ≧100 nM-<1 μM, read-out: IC50 Btk activity values - Assay Method C

Chain of hBTK (full-length BTK, 6HIS-tag cleaved) (Q06187 whole entry): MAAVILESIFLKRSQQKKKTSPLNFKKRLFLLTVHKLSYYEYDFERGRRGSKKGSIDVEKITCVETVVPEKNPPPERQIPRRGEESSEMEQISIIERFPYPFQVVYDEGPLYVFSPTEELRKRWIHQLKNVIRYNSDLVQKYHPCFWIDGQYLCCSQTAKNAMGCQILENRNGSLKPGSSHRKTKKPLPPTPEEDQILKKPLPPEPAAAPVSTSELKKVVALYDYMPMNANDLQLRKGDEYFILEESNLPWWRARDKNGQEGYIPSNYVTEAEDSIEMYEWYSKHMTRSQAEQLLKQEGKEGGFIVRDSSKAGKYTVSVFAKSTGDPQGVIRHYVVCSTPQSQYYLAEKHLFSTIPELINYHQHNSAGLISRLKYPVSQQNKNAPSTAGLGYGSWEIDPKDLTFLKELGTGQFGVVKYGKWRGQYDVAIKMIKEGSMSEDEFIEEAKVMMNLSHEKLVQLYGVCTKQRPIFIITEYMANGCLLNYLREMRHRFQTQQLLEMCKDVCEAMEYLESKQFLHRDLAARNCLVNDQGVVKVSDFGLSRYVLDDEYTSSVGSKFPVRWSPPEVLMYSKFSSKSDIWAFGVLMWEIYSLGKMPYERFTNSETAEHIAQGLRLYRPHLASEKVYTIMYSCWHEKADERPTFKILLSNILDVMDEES

Structure (SMILES): C[C@@H](O)C(=O)N1CCC[C@@H](c2nc(-c3ccc(C(=O)Nc4cc(C(F)(F)F)ccn4)cc3)c3c(N)nccn23)C1 [Example 346, 4-(8-amino-3-{(3R)-1-[(2R)-2-hydroxypropanoyl]piperidin-3-yl}imidazo[1,5-a]pyrazin-1-yl)-N-[4-(trifluoromethyl)pyridin-2-yl]benzamide]
- IC50 [1]: < 10 nM
- IC50 (Table D, Assay Method C (LANCE TR-FRET), read-out: IC50 BTK activity value): 0.219 nM

Structure (SMILES): C[C@@H](O)C(=O)N1CCO[C@@H](c2nc(-c3ccc(C(=O)Nc4cc(C(F)(F)F)ccn4)cc3)c3c(N)ncc(Cl)n23)C1 [Example 524, 4-(8-amino-5-chloro-3-{(2R)-4-[(2R)-2-hydroxypropanoyl]morpholin-2-yl}imidazo[1,5-a]pyrazin-1-yl)-N-[4-(trifluoromethyl)pyridin-2-yl]benzamide]
- IC50 [1]: < 10 nM

Structure (SMILES): CCC(=O)N1CCC[C@@H](c2nc(-c3ccc(C(=O)Nc4cc(C(F)(F)F)ccn4)cc3F)c3c(N)nccn23)C1 [Example 487, 4-{8-amino-3-[(3R)-1-propanoylpiperidin-3-yl]imidazo[1,5-a]pyrazin-1-yl}-3-fluoro-N-[4-(trifluoromethyl)pyridin-2-yl]benzamide]
- IC50 [1]: < 10 nM

Structure (SMILES): C[C@H](O)C(=O)N1CCO[C@@H](c2nc(-c3ccc(C(=O)Nc4cc(C(F)(F)F)ccn4)cc3)c3c(N)nccn23)C1 [Example 519, 4-(8-amino-3-{(2R)-4-[(2S)-2-hydroxypropanoyl]morpholin-2-yl}imidazo[1,5-a]pyrazin-1-yl)-N-[4-(trifluoromethyl)pyridin-2-yl]benzamide]
- IC50 [1]: < 10 nM

Structure (SMILES): CN1C[C@@H](c2nc(-c3ccc(C(=O)Nc4cc(C(F)(F)F)ccn4)cc3)c3c(N)nccn23)CC[C@@H]1C(F)(F)F [Example 410, 4-{8-amino-3-[(3S,6R)-1-methyl-6-(trifluoromethyl)piperidin-3-yl]imidazo[1,5-a]pyrazin-1-yl}-N-[4-(trifluoromethyl)pyridin-2-yl]benzamide]
- IC50 [1]: < 10 nM

Structure (SMILES): CC1(C(=O)N2CCO[C@@H](c3nc(-c4ccc(C(=O)Nc5cc(C(F)(F)F)ccn5)cc4)c4c(N)ncc(Cl)n34)C2)COC1 [Example 505, 4-(8-amino-5-chloro-3-{(2R)-4-[(3-methyloxetan-3-yl)carbonyl]morpholin-2-yl}imidazo[1,5-a]pyrazin-1-yl)-N-[4-(trifluoromethyl)pyridin-2-yl]benzamide]
- IC50 [1]: < 10 nM

Structure (SMILES): CC1(C(=O)N2CCC[C@@H](c3nc(-c4ccc(C(=O)Nc5cc(C(F)(F)F)ccn5)cc4)c4c(N)ncc(C(F)(F)F)n34)C2)COC1 [Example 470, 4-[8-amino-3-{(3R)-1-[(3-methyloxetan-3-yl)carbonyl]piperidin-3-yl}-5-(trifluoromethyl)imidazo[1,5-a]pyrazin-1-yl]-N-[4-(trifluoromethyl)pyridin-2-yl]benzamide]
- IC50 [1]: < 10 nM

Structure (SMILES): Nc1nccn2c([C@@H]3CCCN(C(=O)c4cnsc4)C3)nc(-c3ccc(C(=O)Nc4cc(C(F)(F)F)ccn4)cc3)c12 [Example 333, 4-{8-amino-3-[(3R)-1-(isothiazol-4-ylcarbonyl)piperidin-3-yl]imidazo[1,5-a]pyrazin-1-yl}-N-[4-(trifluoromethyl)pyridin-2-yl]benzamide]
- IC50 [1]: < 10 nM

Structure (SMILES): Cc1ccnc(NC(=O)c2ccc(-c3nn([C@@H]4CCCN(C(=O)C5(C)COC5)C4)c4ccnc(N)c34)cc2)c1 [Example 387, 4-(4-amino-1-{(3R)-1-[(3-methyloxetan-3-yl)carbonyl]piperidin-3-yl}-1H-pyrazolo[4,3-c]pyridin-3-yl)-N-(4-methylpyridin-2-yl)benzamide]
- IC50 [1]: < 10 nM

Structure (SMILES): Cc1nc(NC(=O)c2ccc(-c3nc([C@@H]4CCCN(C(=O)C5(C)COC5)C4)n4ccnc(N)c34)cc2)sc1C [Example 367, 4-(8-amino-3-{(3R)-1-[(3-methyloxetan-3-yl)carbonyl]piperidin-3-yl}imidazo[1,5-a]pyrazin-1-yl)-N-(4,5-dimethyl-1,3-thiazol-2-yl)benzamide]
- IC50 [1]: < 10 nM
